The target of assay [1] is T1, IDO1 (Homo sapiens, UniProt P14902). Put plainly: IDO1 Cellular Assay in HeLa Cells Stimulated with IFNγ. It counts as cell-based. The note with it: read-out: HeLa Cell Potency, IC50.
Assay [2] addresses T1, IDO1. Nature of the assay: IDO1 Human Whole blood Assay. The format is cell-based. Set-up: Human whole blood was drawn in sodium heparin coated tubes from healthy internal donors; from tissue; host or cells: human whole blood from healthy donors, stimulated with LPS and IFNγ. The note with it: LPS and IFNγ stimulated, 18 h, read-out: Human Whole Blood Potency, IC50. Summed up: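 Heparinized healthy-donor human whole blood was preincubated 15 min with compound, then stimulated with LPS and IFNγ (100 ng/mL final) for 18 h at 37 °C. Plasma kynurenine was quantified by LC/MS/MS against a D6-kynurenine internal standard, and IC50s came from 4-parameter sigmoidal fits.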

Each structure is given as a SMILES string. pIC50: −log10 of the molar value.

By pIC50 is commonly meant the IC50 on a negative log10 scale, so that one unit is a factor of ten.

T1 sequence (P14902 whole entry): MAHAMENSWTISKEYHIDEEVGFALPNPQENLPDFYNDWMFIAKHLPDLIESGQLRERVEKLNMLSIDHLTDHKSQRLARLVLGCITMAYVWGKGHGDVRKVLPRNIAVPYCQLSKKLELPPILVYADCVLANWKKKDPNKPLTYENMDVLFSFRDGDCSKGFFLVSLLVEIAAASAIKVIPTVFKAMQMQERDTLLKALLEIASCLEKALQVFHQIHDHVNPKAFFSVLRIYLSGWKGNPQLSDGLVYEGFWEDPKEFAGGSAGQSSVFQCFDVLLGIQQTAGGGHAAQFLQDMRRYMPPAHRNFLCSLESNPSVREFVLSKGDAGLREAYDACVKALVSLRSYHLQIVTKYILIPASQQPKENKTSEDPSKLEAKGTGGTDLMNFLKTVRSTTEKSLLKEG

With `Cc1cccc(N2CCN(C(=O)Cn3nc(C(=O)N4C[C@@H](C)O[C@@H](C)C4)c4c3CCC4)C3(CC3)C2)c1C` [Example 391, 2-(3-((2S,6R)-2.6-dimethylmorpholine-4-carbonyl)-5,6-dihydrocyclopenta[c]pyrazol-1(4H)-yl)-1-(7-(2,3-dimethylphenyl)-4.7-diazaspiro[2.5]octan-4-yl)ethanone], the results for the negative logarithm of the IC50 (pIC50) on IDO1 [1] and at IDO1 [2] were 8.30 and 6.00, respectively.

In the case of `Cc1c(Cl)cccc1N1CCN(C(=O)Cn2nc(C(=O)N3CCN(C(=O)CO)CC3)c3c2CCCC3)CC1` [Example 405, 1-(4-(3-chloro-2-methylphenyl)piperazin-1-yl)-2-(3-(4-(2-hydroxyacetyl)piperazine-1-carbonyl)-4,5,6,7-tetrahydro-1H-indazol-1-yl)ethanone], the pIC50 on IDO1 [1] was 8.45; at IDO1 [2], 6.74.

In the case of `Cc1c(Cl)cccc1N1CCN(C(=O)Cn2nc(C(=O)N3CC[C@@H](O)[C@@H](F)C3)c3c2CCCC3)CC1` [Example 406, 1-(4-(3-chloro-2-methylphenyl)piperazin-1-yl)-2-(3-((3S,4R)-3-fluoro-4-hydroxypiperidine-1-carbonyl)-4,5,6,7-tetrahydro-1H-indazol-1-yl)ethanone], the negative-log IC50 (pIC50) at IDO1 [1] was 8.52; on IDO1 [2], 6.51.

In the case of `Cc1c(Cl)cccc1N1CCN(C(=O)Cn2nc(C(=O)N3CCC(O)CC3)c3c2C(F)(F)[C@H]2C[C@@H]32)CC1` [Example 448, 1-(4-(3-chloro-2-methylphenyl)piperazin-1-yl)-2-((3bR,4aS)-5,5-difluoro-3-(4-hydroxypiperidine-1-carbonyl)-3b,4,4a,5-tetrahydro-1H-cyclopropa[3,4]cyclopenta[1,2-c]pyrazol-1-yl)ethanone], the figures for the pIC50 on IDO1 [1] and at IDO1 [2] were 8.45 and 6.44, respectively.

Regarding `Cc1cccc(N2CCN(C(=O)Cn3nc(C(=O)N4C[C@@H](C)O[C@@H](C)C4)c4c3C3CC3C4)CC2)c1C` (stereo partly drawn) [Example 449, 2-(3-((2R,6S)-2,6-dimethylmorpholine-4-carbonyl)-4,4a,5,5a-tetrahydro-1H-cyclopropa[4,5]cyclopenta[1,2-c]pyrazol-1-yl)-1-(4-(2,3-dimethylphenyl)piperazin-1-yl)ethanone], the pIC50 on IDO1 [1] is 8.10; on IDO1 [2], 6.27.

On to `Cc1cccc(N2CCN(C(=O)Cn3nc(C(=O)N4CCC(O)CC4)c4c3CCCC4)CC2)c1Cl` [Example 450, 1-(4-(2-chloro-3-methylphenyl)piperazin-1-yl)-2-(3-(4-hydroxypiperidine-1-carbonyl)-4,5,6,7-tetrahydro-1H-indazol-1-yl)ethanone], for which the pIC50 at IDO1 [1] was 8.74; on IDO1 [2], 6.82.

For `Cc1c(F)ccc(N2CCN(C(=O)Cn3nc(C(=O)N4CCC(O)CC4)c4c3CCCC4)CC2)c1C` [Example 451, 1-(4-(4-fluoro-2,3-dimethylphenyl)piperazin-1-yl)-2-(3-(4-hydroxypiperidine-1-carbonyl)-4,5,6,7-tetrahydro-1H-indazol-1-yl)ethanone], the pIC50 is 8.92 on IDO1 [1] and 7.44 at IDO1 [2].

`Cc1cccc(N2CCN(C(=O)Cn3nc(C(=O)N4CCN(CC(N)=O)CC4)c4c3CCCC4)CC2)c1C` [Example 454, 2-(4-(1-(2-(4-(2,3-dimethylphenyl)piperazin-1-yl)-2-oxoethyl)-4,5,6,7-tetrahydro-1H-indazol-3-carbonyl)piperazin-1-yl) acetamide]: the negative logarithm of the IC50 (pIC50) on IDO1 [1] is 8.55; on IDO1 [2] it was 7.17.

Consider `Cc1c(F)cccc1N1CCN(C(=O)Cn2nc(C(=O)N3CCC(OCCO)CC3)c3c2CCC3)CC1` [Example 456, 1-(4-(3-fluoro-2-methylphenyl)piperazin-1-yl)-2-(3-(4-(2-hydroxyethoxy)piperidine-1-carbonyl)-5,6-dihydrocyclopenta[c]pyrazol-1(4H)-yl) ethanone], for which the values for the pIC50 at IDO1 [1] and on IDO1 [2] were 7.67 and 6.99, respectively.

`Cc1cccc(N2CCN(C(=O)Cn3nc(C(=O)N4CC[C@@H](O)[C@@H](F)C4)c4c3CCCC4)CC2)c1Cl` [Example 457, 1-(4-(2-chloro-3-methylphenyl)piperazin-1-yl)-2-(3-((3S,4R)-3-fluoro-4-hydroxy-piperidine-1-carbonyl)-4,5,6,7-tetrahydro-1H-indazol-1-yl)ethanone]: the negative logarithm of the IC50 (pIC50) is 8.76 at IDO1 [1] and 6.51 on IDO1 [2].

In the case of `Cc1c(F)ccc(N2CCN(C(=O)Cn3nc(C(=O)N4CC[C@@H](O)[C@@H](F)C4)c4c3CCCC4)CC2)c1C` [Example 462, 1-(4-(4-fluoro-2,3-dimethylphenyl)piperazin-1-yl)-2-(3-((3S,4R)-3-fluoro-4-hydroxy-piperidine-1-carbonyl)-4,5,6,7-tetrahydro-1H-indazol-1-yl)ethanone,], the figures for the negative logarithm of the IC50 (pIC50) at IDO1 [1] and at IDO1 [2] were 8.88 and 6.99, respectively.

As to `Cc1cccc(N2CCN(C(=O)Cn3nc(C(=O)N4CCC(OCCO)CC4)c4c3CCCC4)CC2)c1C` [Example 463, 1-(4-(2,3-dimethylphenyl)piperazin-1-yl)-2-(3-(4-(2-hydroxyethoxy)piperidine-1-carbonyl)-4,5,6,7-tetrahydro-1H-indazol-1-yl)ethanone], the pIC50 on IDO1 [1] is 8.86; on IDO1 [2] it was 7.43.

With `Cc1c(F)ccc(N2CCN(C(=O)Cn3nc(C(=O)N4CCC(O)CC4(C)C)c4c3CCCC4)CC2)c1C` (stereo not drawn) [Example 464, 1-(4-(4-fluoro-2,3-dimethylphenyl)piperazin-1-yl)-2-(3-(4-hydroxy-2,2-dimethyl-piperidine-1-carbonyl)-4,5,6,7-tetrahydro-1H-indazol-1-yl)ethanone], the pIC50 on IDO1 [1] is 8.86; on IDO1 [2], 6.87.

For `Cc1c(F)ccc(N2CCN(C(=O)Cn3nc(C(=O)N4CC[C@H](O)[C@H](F)C4)c4c3CCCC4)CC2)c1C` [Example 465, 1-(4-(4-fluoro-2,3-dimethylphenyl)piperazin-1-yl)-2-(3-((3R,4S)-3-fluoro-4-hydroxypiperidine-1-carbonyl)-4,5,6,7-tetrahydro-1H-indazol-1-yl)ethanone], the negative logarithm of the IC50 (pIC50) was 8.83 on IDO1 [1] and 7.06 on IDO1 [2].

Regarding `Cc1cccc(N2CCN(C(=O)Cn3nc(C(=O)N4CCC(O)CC4)c4c3CCCC4)CC2)c1C` [Example 466, 1-(4-(2,3-dimethylphenyl)piperazin-1-yl)-2-(3-(4-hydroxy-piperidine-1-carbonyl)-4,5,6,7-tetrahydro-1H-indazol-1-yl)ethanone], the pIC50 at IDO1 [1] was 8.77; at IDO1 [2], 6.63.

In the case of `Cc1cccc(N2CCN(C(=O)Cn3nc(C(=O)N4CC[C@H](O)[C@@H](F)C4)c4c3CCCC4)CC2)c1C` [Example 468, 1-(4-(2,3-dimethylphenyl)piperazin-1-yl)-2-(3-((3S,4S)-3-fluoro-4-hydroxypiperidine-1-carbonyl)-4,5,6,7-tetrahydro-1H-indazol-1-yl)ethanone], the negative logarithm of the IC50 (pIC50) on IDO1 [1] was 8.72; at IDO1 [2], 7.06.

Consider `Cc1cccc(N2CCN(C(=O)Cn3nc(C(=O)N4CCO[C@@H](CO)C4)c4c3CCCC4)CC2)c1C` [Example 470, (R)-1-(4-(2,3-dimethylphenyl)piperazin-1-yl)-2-(3-(2-(hydroxymethyl)morpholine-4-carbonyl)-4,5,6,7-tetrahydro-1H-indazol-1-yl)ethanone], for which the negative-log IC50 (pIC50) on IDO1 [1] is 8.58; at IDO1 [2], 7.51.

Turning to `CC(=O)NC1CCN(C(=O)c2nn(CC(=O)N3CCN(c4cccc(C)c4C)CC3)c3c2CCCC3)CC1` [Example 471, N-(1-(1-(2-(4-(2,3-dimethylphenyl)piperazin-1-yl)-2-oxoethyl)-4,5,6,7-tetrahydro-1H-indazole-3-carbonyl)piperidin-4-yl) acetamide], the pIC50 is 8.58 on IDO1 [1] and 7.19 at IDO1 [2].

On to `Cc1cccc(N2CCN(C(=O)Cn3nc(C(=O)N4CC[C@@H](O)[C@H](F)C4)c4c3CCCC4)CC2)c1C` [Example 472, 1-(4-(2,3-dimethylphenyl)piperazin-1-yl)-2-(3-((3R,4R)-3-fluoro-4-hydroxypiperidine-1-carbonyl)-4,5,6,7-tetrahydro-1H-indazol-1-yl)ethanone], for which the negative logarithm of the IC50 (pIC50) at IDO1 [1] was 8.47; on IDO1 [2], 6.68.

As to `Cc1cccc(N2CCN(C(=O)Cn3nc(C(=O)N4CCC(NC(=O)CO)CC4)c4c3CCCC4)CC2)c1C` [Example 473], the pIC50 on IDO1 [1] was 8.38; at IDO1 [2], 7.00.

In the case of `Cc1cccc(N2CCN(C(=O)Cn3nc(C(=O)N4CC[C@H](O)[C@H](F)C4)c4c3CCCC4)CC2)c1C` [Example 475, 1-(4-(2,3-dimethylphenyl)piperazin-1-yl)-2-(3-((3R,4S)-3-fluoro-4-hydroxypiperidine-1-carbonyl)-4,5,6,7-tetrahydro-1H-indazol-1-yl)ethanone], the pIC50 at IDO1 [1] is 8.37; on IDO1 [2], 7.28.

For `Cc1cccc(N2CCN(C(=O)Cn3nc(C(=O)N4CC[C@@H](O)[C@@H](F)C4)c4c3CCCC4)CC2)c1C` [Example 476, 1-(4-(2,3-dimethylphenyl)piperazin-1-yl)-2-(3-((3S,4R)-3-fluoro-4-hydroxypiperidine-1-carbonyl)-4,5,6,7-tetrahydro-1H-indazol-1-yl)ethanone], the negative-log IC50 (pIC50) on IDO1 [1] is 8.26; at IDO1 [2], 6.79.

For `Cc1cccc(N2CCN(C(=O)Cn3nc(C(=O)N4CCC(O)(CF)CC4)c4c3CCCC4)CC2)c1C` [Example 477, 1-(4-(2,3-dimethylphenyl)piperazin-1-yl)-2-(3-(4-(fluoromethyl)-4-hydroxypiperidine-1-carbonyl)-4,5,6,7-tetrahydro-1H-indazol-1-yl)ethanone], the pIC50 at IDO1 [1] is 8.26; on IDO1 [2], 7.21.

Turning to `Cc1cccc(N2CCN(C(=O)Cn3nc(C(=O)N4CCC(NC(=O)CCO)CC4)c4c3CCCC4)CC2)c1C` [Example 478, N-(1-(1-(2-(4-(2,3-dimethylphenyl)piperazin-1-yl)-2-oxoethyl)-4,5,6,7-tetrahydro-1H-indazol-3-carbonyl)piperidin-4-yl)-3-hydroxypropanamide], the results for the pIC50 at IDO1 [1] and at IDO1 [2] were 8.15 and 6.86, respectively.

Values taken from patent US12264134B2 (Merck Sharp & Dohme LLC, priority 2018, dated 2025).
